# Source: patent US20020192233A1, “Human T cell response to MHC-binding motif clusters” (priority 2000, published 2002)
# System: peripheral blood mononuclear cells from Mtb-immune (PPD skin-test positive) subjects
# Format: cell-based, human
# Details: for Phil # responders (n = 38) / Phil % responders (n = 38): Philippines cohort; for Phil # responders (n = 38) / Phil % responders (n = 38) / Prov # responders (n = 22) / Prov % responders (n = 22): positive if SI≧2.0, peptide 1 and 10 μg/ml; for Prov # responders (n = 22) / Prov % responders (n = 22): Providence cohort; for number of Mtb-immune responders (proliferative response): all 40 Mtb-immune subjects, SI≧2.0
Substance,Phil # responders (n = 38),Phil % responders (n = 38),Prov # responders (n = 22),Prov % responders (n = 22),number of Mtb-immune responders (proliferative response),"response to mitogen (PHA 1 μg/ml, the 41 subjects who were tested)"
"CEVWSNVSETISGPRLYGEM (listed as Mycobacterium tuberculosis) [14-5, aa 74-93 of 14 kDa Mtb protein]",2,5%,2,5%,,
"GSFGSAPSNGWLKLGLVEFG (listed as Mycobacterium tuberculosis) [14-2, aa 19-38 of 14 kDa Mtb protein]",6,15%,3,8%,six,
SHYKITGTATGVD [19-5],1,3%,3,8%,,
"VSETISGPRLYGEMTMQGTR (listed as Mycobacterium tuberculosis) [14-6, aa 80-99 of 14 kDa Mtb protein]",1,3%,1,3%,,
"RSLFPEFSELFAAFPSFAGL (listed as Mycobacterium tuberculosis) [16-1, aa 11-30 of 16 kDa Mtb protein]",4,10%,2,5%,six,
"LAIYHPQQFVYAGAMSGLLD (listed as Mycobacterium tuberculosis) [32-7, aa 135-154 of 32 kDa Mtb protein (Antigen 85A)]",5,13%,6,15%,six,
"QAVMLGTGTPNRA (listed as Mycobacterium tuberculosis) [14-4, aa 56-68 of 14 kDa Mtb protein]",3,8%,1,3%,,
"AELPGVDPDKDVD (listed as Mycobacterium tuberculosis) [16-3, aa 54-66 of 16 kDa Mtb protein]",0,0%,1,3%,one,
phytohemagglutinin [reference compound],,,,,,robust response
"KFLEGFVRTSNIKFQD (listed as Mycobacterium tuberculosis) [32-9, aa 227-242 of 32 kDa Mtb protein (Antigen 85A)]",3,8%,3,8%,six,
"LPVEYLQVPSPSMGR (listed as Mycobacterium tuberculosis) [32-1, aa 6-20 of 32 kDa Mtb protein (Antigen 85A)]",3,8%,2,5%,,
"RHVKPTGSAVVGLSMAASSA (listed as Mycobacterium tuberculosis) [32-5, aa 113-132 of 32 kDa Mtb protein (Antigen 85A)]",2,5%,8,20%,six,
"FSELFAAFPSFAGLRPTFDT (listed as Mycobacterium tuberculosis) [16-2, aa 17-36 of 16 kDa Mtb protein]",4,10%,1,3%,,
VAVAGAAILVAGLSGCSSN [19-1],5,13%,8,20%,,
"SVVMPVGGQSSFYSDW (listed as Mycobacterium tuberculosis) [32-3, aa 67-82 of 32 kDa Mtb protein (Antigen 85A)]",5,13%,2,5%,six,
"GILTVSVAVSEGKPTEK (listed as Mycobacterium tuberculosis) [16-6, aa 119-135 of 16 kDa Mtb protein]",2,5%,1,3%,,
"GVFDFPDSGTHSW (listed as Mycobacterium tuberculosis) [32-10, aa 252-264 of 32 kDa Mtb protein (Antigen 85A)]",3,8%,2,5%,,
"VTLGYTSGTGQ (listed as Mycobacterium tuberculosis) [19-4, aa 107-117 of 19 kDa Mtb protein]",2,5%,3,8%,,
"ALYLLDGLRAQDD (listed as Mycobacterium tuberculosis) [32-2, aa 35-47 of 32 kDa Mtb protein (Antigen 85A)]",3,8%,2,5%,,
"MLGNAPSVVPNTTLGMHC (listed as Mycobacterium tuberculosis) [14-1, aa 1-18 of 14 kDa Mtb protein]",2,5%,2,5%,,
"LTIKAERTEQK (listed as Mycobacterium tuberculosis) [16-4, aa 74-84 of 16 kDa Mtb protein]",0,0%,5,13%,,
